Results as given in paper PMC10779255, “Novel Hydroxamic Acids Containing Aryl-Substituted 1,2,4- or 1,3,4-Oxadiazole Backbones and an Investigation of Their Antibiotic Potentiation Activity” (International Journal of Molecular Sciences, 2023).
“Also recorded” adds a separate entry of the source.

Legend:
[1] = Cytotoxicity assay (Alamar Blue); type: cell-based; details: human, HEK293 cells, 72 h exposure, mean ± SD, at least 3 independent experiments
Procedure: The HEK293 cell line was obtained from the ECACC (European Collection of Authenticated Cell Cultures, cat. 85120602, Salisbury, UK). The cells were grown in monolayer culture in Dulbecco’s Modified Eagle Medium (DMEM) (PanEco, Moscow, Russia) supplemented with 2 mM of L-glutamine, 1% penicillin/streptomycin (Capricorn Scientific, Ebsdorfergrund, Germany), and 10% heat-inactivated fetal bovine serum (HyClone, Cytiva, Pasching, Austria) in a humidified atmosphere of 5% CO2 and at 37 °C (Binder, Tuttlingen, Germany). For analysis, the HEK293 cells were seeded into a 96-well plate (Corning Incorporated, Corning, NY, USA) in 100 μL of complete culture medium at a final concentration of 1 × 10^4 cells/well and cultured for 24 h for proper attachment. Subsequently, the medium was removed, and cells were exposed to the test inhibitor with different concentrations for 72 h in 100 μL of fresh complete culture medium. The sensitivity of the cells to test inhibitor molecules was detected using the vital dye Alamar Blue (Invitrogen, Carlsbad, CA, USA). The Alamar Blue assay was performed according to the procedure described by O’Brien et al.. After incubation with test inhibitor molecules, 10 μL of Alamar Blue reagent was added to each well, cell culture plates were returned to a humidified incubator, and the fluorescence was read after 3 h. The plates were exposed to an excitation wavelength of 545 nm, and the emission at 600 nm was measured with the CLARIOstar Plus (BMG Labtech, Ortenberg, Germany, Software Version 5.70 R2). To determine corresponding 50% cellular cytotoxicity (CC50) values, a four-parameter sigmoidal fit curve model (GraphPad Prism 8 software) was used to measure the data.

[2] = tested on: E. coli MG1655; assay: Growth curves of E. coli MG1655 with antibiotics, with or without LpxC inhibitors (antibiotic potentiation); type: cell-based, Escherichia coli; details: for Activity: combined action together with the antibiotic, marking used for QSAR; for potentiation of kanamycin (sensitivity of cells): kanamycin 0.62 μM; for potentiation of kanamycin (sensitivity of cells) / potentiation of rifampicin (sensitivity of cells): inhibitor 50 or 100 µM; for potentiation of kanamycin (sensitivity of cells) / potentiating activity with nalidixic acid (growth inhibition) / potentiation of rifampicin (sensitivity of cells): OD600 growth curves; for potentiating activity with nalidixic acid (growth inhibition): nalidixic acid 17.22 μM, inhibitor 50–100 µM; for potentiation of rifampicin (sensitivity of cells): rifampicin 6.08 μM; on Activity: key: active (1); inactive (0)
Procedure: (§1) Escherichia coli strain MG1655 and Pseudomonas aeruginosa strain ATCC 27853 were obtained from the American Type Culture Collection (ATCC; Rockville, MD, USA). Subculturing and inoculum preparation were prepared according to the Clinical and Laboratory Standards Institute (CLSI) recommended method, M7-A9 [42], using MHA and MHB.
Growth curves were obtained with a Bioscreen C automated growth analysis system. Cultures of E. coli MG1655 were grown overnight at 37 °C, diluted 1:100 in fresh medium, inoculated into honeycomb wells in triplicate, and grown at 37 °C with maximum shaking using the platform of the Bioscreen C instrument. […] OD600 values were recorded automatically at specified times, and the means of the triplicate cultures were plotted.

[3] = tested on: P. aeruginosa ATCC 27853; assay: MIC (broth microdilution) and growth curves of antibiotics in combination with 9c or 9d; type: cell-based, Pseudomonas aeruginosa; details: 24 h, broth microdilution
Procedure: as §1
Minimum inhibitory concentrations (MICs) for rifampicin and nalidixic acid were determined via the modified broth microdilution method in triplicate according to CLSI guidelines M7-A9 and M100-A30 [43]. The antibiotics were serially diluted twofold in 100 μL of MHB. The bacteria inoculum was 100 μL of a 1.0 × 10^6 CFU/mL dilution in MHB. MICs for antibiotics in the presence of 9c or 9d were determined with the same method.
MIC endpoints were read after 24 h of incubation with an iMark microplate absorbance reader (Bio-Rad, Hercules, CA, USA). Growth curves of P. aeruginosa ATCC 27853 in the presence of rifampicin/nalidixic acid and 9c/9d were obtained using a multifunction microplate reader, SuperMax 3100 (ShanghaiFlash, Shanghai, China). Cells were grown in triplicate at 37 °C with aeration.

Row | Structure (SMILES) | CC50 at 72 h [1] | Activity [2] | melting point | potentiation of kanamycin (sensitivity of cells) [2] | potentiating activity with nalidixic acid (growth inhibition) [2] | potentiation of rifampicin (sensitivity of cells) [2] | MIC of antibiotic alone [3]
1 | O=C(NO)c1nc(-c2c(F)cccc2F)no1 [Compound 4a] | > 500 µM | 0 | 117.4 °C (dec.) |  |  |  | 
2 | O=C(NO)c1nc(-c2ccc(OC(F)(F)F)cc2)no1 [Compound 4b] | 380 ± 10.2 µM | 0 | 108.6 °C (dec.) |  |  |  | 
3 | O=C(NO)c1nc(-c2cc(F)c(F)c(F)c2)no1 [Compound 4c] | > 500 µM | 0 | 133.6 °C (dec.) |  |  |  | 
4 | Cc1cccc(-c2noc(C(=O)NO)n2)c1 [Compound 4d] | 457 ± 18.2 µM | 0 | 106 °C (dec.) |  |  |  | 
5 | COc1ccc(-c2noc(C(=O)NO)n2)cc1 [Compound 4e] | > 250 µM | 0 | 144 °C (dec.) |  |  |  | 
6 | O=C(NO)c1nc(-c2ccc(I)cc2)no1 [Compound 4f] | 367 ± 53.9 µM | 0 | 181.3 °C (dec.) |  |  |  | 
7 | O=C(Cc1nc(-c2c(F)cccc2F)no1)NO [Compound 9a] | 188 ± 31.2 µM | 0 | 149.7 °C (dec.) |  |  |  | 
8 | O=C(Cc1nc(-c2ccc(OC(F)(F)F)cc2)no1)NO [Compound 9b] | 108 ± 23.9 µM | 0 | 177 °C (dec.) |  |  |  | 
9 | O=C(NO)c1cccc(-c2nc(-c3c(F)cccc3F)no2)c1 [Compound 14a] | 25.5 ± 3.11 µM | 0 | 204.2 °C (dec.) |  |  |  | 
10 | O=C(NO)c1cccc(-c2nc(-c3ccc(OC(F)(F)F)cc3)no2)c1 [Compound 14b] | 6.39 ± 1.32 µM | 0 | 191 °C (dec.) |  |  |  | 
11 | O=C(NO)c1cccc(-c2nc(-c3cc(F)c(F)c(F)c3)no2)c1 [Compound 14c] | 4.53 ± 1.22 µM | 0 | 188.5 °C (dec.) |  |  |  | 
12 | O=C(NO)c1ccc(-c2nc(-c3ccc(OC(F)(F)F)cc3)no2)cc1 [Compound 14d] | 5.28 ± 1.05 µM | 0 | 236 °C (dec.) |  |  |  | 
13 | O=C(NO)c1ccc(-c2nc(-c3ccccc3)no2)cc1 [Compound 14e] | 15 ± 0.53 µM | 0 | 265.4 °C (dec.) |  |  |  | 
14 | O=C(CCc1nc(-c2c(F)cccc2F)no1)NO [Compound 17a] | 30.8 ± 3.71 µM | 0 | 99 °C (dec.) |  |  |  | 
15 | O=C(CCc1nc(-c2ccc(OC(F)(F)F)cc2)no1)NO [Compound 17b] | 42.4 ± 4.58 µM | 0 | 120 °C (dec.) |  |  |  | 
16 | O=C(CCc1nc(-c2cc(F)c(F)c(F)c2)no1)NO [Compound 17c] | 59.2 ± 7.27 µM | 0 | 122 °C (dec.) |  |  |  | 
17 | Cc1cccc(-c2noc(CCC(=O)NO)n2)c1 [Compound 17d] | 21.3 ± 2.53 µM |  | 115.8 °C (dec.) |  |  |  | 
18 | O=C(Cc1noc(-c2ccc(Cl)cc2)n1)NO [Compound 23a] | 112 ± 18.6 µM | 1 | 174 °C (dec.) | significantly increased the sensitivity | inhibited bacterial growth less effectively; also recorded: less effective | significantly increased the sensitivity | 
19 | O=C(Cc1noc(-c2ccc(I)cc2)n1)NO [Compound 23b] | 169 ± 22.5 µM | 0 | 211.6 °C (dec.) |  |  |  | 
20 | O=C(Cc1noc(-c2cccc(Cl)c2)n1)NO [Compound 23c] | 143 ± 3.84 µM | 1 | 146 °C (dec.) | significantly increased the sensitivity | inhibited bacterial growth less effectively; also recorded: less effective | significantly increased the sensitivity | 
21 | O=C(Cc1noc(-c2cccc(I)c2)n1)NO [Compound 23d] | 171 ± 22.9 µM | 0 | 156.3 °C (dec.) |  |  |  | 
22 | O=C(NO)c1cccc(-c2noc(-c3ccccc3F)n2)c1 [Compound 26] | 21.7 ± 3.43 µM | 0 | 199.3 °C (dec.) |  |  |  | 
23 | O=C(NO)c1nnc(-c2ccc(I)cc2)o1 [Compound 30a, N-Hydroxy-5-(4-iodophenyl)-1,3,4-oxadiazole-2-carboxamide] | 62.2 ± 9.88 µM | 0 | 184.4 °C (dec.) |  |  |  | 
24 | O=C(NO)c1nnc(-c2cccc(I)c2)o1 [Compound 30b, N-Hydroxy-5-(3-iodophenyl)-1,3,4-oxadiazole-2-carboxamide] | > 200 µM | 1 | 274.9 °C (dec.) | not to kanamycin | inhibited bacterial growth less effectively; also recorded: weak potentiating activity | significantly increased the sensitivity | 
25 | Cc1cc(F)ccc1-c1nnc(C(=O)NO)o1 [Compound 30c, 5-(4-Fluoro-2-methylphenyl)-N-hydroxy-1,3,4-oxadiazole-2-carboxamide] | > 200 µM | 0 | 259.6 °C (dec.) |  |  |  | 
26 | COc1ccc(-c2nnc(C(=O)NO)o2)c(OC)c1 [Compound 30d, 5-(2,4-Dimethoxyphenyl)-N-hydroxy-1,3,4-oxadiazole-2-carboxamide] | > 600 µM | 0 | 197.3 °C (dec.) |  |  |  | 
27 | COc1cccc(-c2nnc(C(=O)NO)o2)c1OC [Compound 30e, 5-(2,3-Dimethoxyphenyl)-N-hydroxy-1,3,4-oxadiazole-2-carboxamide] | 770 ± 58.4 µM | 0 | 166.7 °C (dec.) |  |  |  | 
28 | COc1ccc(-c2nnc(C(=O)NO)o2)cc1OC [Compound 30f, 5-(3,4-Dimethoxyphenyl)-N-hydroxy-1,3,4-oxadiazole-2-carboxamide] | 478 ± 50.5 µM | 0 | 130.7 °C (dec.) |  |  |  | 
29 | CCn1cc(C(=O)O)c(=O)c2ccc(C)nc21 [nalidixic acid, reference compound] |  |  |  |  |  |  | 17.22 µM
30 | CO[C@H]1/C=C/O[C@@]2(C)Oc3c(C)c(O)c4c(O)c(c(/C=N/N5CCN(C)CC5)c(O)c4c3C2=O)NC(=O)/C(C)=C\C=C\[C@H](C)[C@H](O)[C@@H](C)[C@@H](O)[C@@H](C)[C@H](OC(C)=O)[C@@H]1C [rifampicin, reference compound] |  |  |  |  |  |  | 4.86 µM
